Source: patent US20160123960A1, “METHOD FOR PREPARING THREE-DIMENSIONAL, ORGANOTYPIC CELL CULTURES AND USES THEREOF” (priority 2013, published 2016)

Tests used:
[1] = system: HCT-116 spheroids; assay: InSphero assay (hanging drop spheroids), HCT-116; conditions: Homo sapiens
Excerpt: This experiment that was undertaken was to determine if there was an increase in the resistance of known drug in comparison of the spheroid culture to OTOC format. The same conditions that were use in the previous InSphero experiment (in regards to dose and timing) were used in this experiment.

[2] = system: HCT-116 (HCT-116-Luc) OTOCs; conditions: repeated experiment, newly generated HCT-116 OTOCs and InSphero spheroids
Protocol: 24 OTOCs were removed and placed in a 6-well plate, 4 OTOCs/well on day 3 post OTOC seeding/creation.
At 4 days post drug administration all OTOC's were collected for viability measurement to look at growth kinetics and drug resistance to STP.
Each OTOC was placed in a glass test tube with several glass beads. Approximately 800 of PBS was added to test tube and the tube was vortexed for 2-3 min to disrupt the OTOC. After vortexing each test tube was placed on ice until sampling. A black 96 well plate was used for the samples. For each lane 100 μl of the OTOC solution was placed in each well (8 wells/800 (total)/OTOC) until all OTOCs samples were completed. 100 μl of Celltiter glow was added to each well and the plates were rested for 10 min before reading. IVIS Spectrum was run on Auto exposure for each plate and the Living Image analysis program was used to determine Radiance/per well. Lanes were added up and group average and error was determined.
The same conditions that were use in the previous InSphero experiment (in regards to dose and timing) were used in this experiment.

[3] = system: T47D μOTOCs; assay: 18F-FDG uptake in μOTOCs by Cerenkov Luminescence Imaging, T47D; format: cell-based; conditions: 250 μM, 24 hrs, CLI
Protocol: (§1) Cobalt chloride (CoCl2) is known to cause an increase in 18F-FDG uptake in cells treated /over 24 hours. As such, 250 μM CoCl2 was used to test whether μTOCs could be imaged.
(§2) μOTOCs of H1048 (small cell lung carcinoma) and T47D (mammary gland; ductal carcinoma) cells were generated using the method described in Example 1.
(§3) On Day 3 post seeding/creation of the OTOCs (i.e, after forming the μOTOCs in oil then transferring to T75 flask for 3 days of culture), the μOTOCs were transferred one at a time via pipette into a 96 well plate (1 μOTOC/well). 250 μM CoCl2 was added to each well. Cerenkov Luminescence Imaging was used to monitor the FDG response in vitro.

[4] = system: H1048 μOTOCs; assay: 18F-FDG uptake in μOTOCs by Cerenkov Luminescence Imaging, H1048; format: cell-based; conditions: 250 μM, 24 hrs, CLI
Protocol: as §1, §2, §3

[5] = system: H460 OTOCs; assay: 18F-FDG uptake in OTOCs by Cerenkov Luminescence Imaging, H460; format: cell-based; conditions: 700 ng/ml, 24 hr time point, CLI
Excerpt: (§4) The objective of this study was to monitor radio-labeled compound uptake in vitro using the OTOC system described herein. Three tumor cell lines (HT-29 (colon tumor cell line), HCT-116 (colon tumor cell line), and H460 (lung tumor cell line) were used to generate OTOCs in order to test the effects of FDG uptake after drug treatment with MLN9708, a proteasome inhibitor. OTOCs for each cell line were transferred to 6 well plates, respectively, with 6 OTOCs/well.
(§5) An in vitro dosage of MLN9708 was extrapolated from historical in vivo PK studies for this compound. A 700 ng/ml concentration was decided upon and used in the OTOC studies described herein (derived from the mean tumor concentration achievable with a standard dose of MLN9708 (11 mg/kg PK dose, IV)).
(§6) The imaging modality Cerenkov Luminescence Imaging (CLI, Robertson et al. (2009) Phys. Med. Biol. 54:N355-N365) was used to monitor the FDG response in vitro.
(§7) The cell line HT-29 (KRAS WT) is known to be responsive to MLN9708 in vivo (t/c <0.3), while HCT-116 and H460 (both KRAS mutants) have shown resistance to proteasome inhibition (data not shown). OTOCs were imaged via CLI at 24, 48, 72, 96 hours post compound administration.

[6] = system: HCT-116 OTOCs; assay: 18F-FDG uptake in OTOCs by Cerenkov Luminescence Imaging, HCT-116; format: cell-based; conditions: 700 ng/ml, 24 hr time point, CLI
Excerpt: as §4, §5, §6, §7

[7] = system: HT-29 OTOCs; assay: 18F-FDG uptake in OTOCs by Cerenkov Luminescence Imaging, HT-29; format: cell-based; conditions: 700 ng/ml, 24 hr time point, CLI
Excerpt: as §4, §5, §6, §7

[8] = system: HT-29 (KRAS WT); assay: In vivo response of HT-29 (t/c); conditions: HT-29 in vivo

CN[C@@H]1C[C@H]2O[C@@](C)([C@@H]1OC)n1c3ccccc3c3c4c(c5c6ccccc6n2c5c31)C(=O)NC4 [Staurosporine]
IC50 [1]: 37 nM
greater resistance in OTOCs assay as compared to InSphero assay [2]: 1800 ×

[Cl][Co][Cl] [CoCl2, Cobalt chloride]
increase in FDG uptake [3]: 33.7%
increase in 18F-FDG uptake [4]: 22.6%

CC(C)C[C@H](NC(=O)CNC(=O)c1cc(Cl)ccc1Cl)B1OC(=O)C(CC(=O)O)(CC(=O)O)O1 [MLN9708]
FDG signal change from control [5]: -10%
FDG uptake response [6]: < 10%
increased FDG uptake [7]: 48%
t/c [8]: < 0.3
